Key:
[1] = system: BALB/c male mice; test: Mouse skin's barrier function, preventive test, TEWL (Test Example 6); format: in vivo; conditions: cohabitation with dermatitic NC/Nga mice; 0.01% in ethanol, 100 μL, once a day for 7 days
Experimental: Six-week-old BALB/c male mice in groups of six were shaven in a rostral dorsolateral area of 4 cm^2 (2 cm×2 cm) with electric clippers and kept in the same cage as NC/Nga mice that had developed dermatitis. From the day next to the start of cohabitation, a solvent (ethanol, 100 μL) or a drug dissolved in the solvent (compound No. 7, PGD2, PGF2α, or PGE1, all being at 0.01% in an amount of 100 μL) was applied to the shaven site for 7 days on once-a-day basis.
On the day next to the seventh application of the solvent or drug, the transepidermal water loss (TEWL) at the same site was measured with Tewameter (TM210 of Courage & Khazawa, Germany) to evaluate the drug's action, with the solvent-applied group being used as the control group.

[2] = target: T1, prostaglandin D receptor (Homo sapiens, UniProt Q13258); test: Antagonism by BW A868C of the suppression of ADP-induced human platelet aggregation; format: cell-based; conditions: final concentration 95.7 nmol/L, human PRP, ADP 3 μmol/L
T1 construct: separate the supernatant (PRP, or platelet-rich plasma); endogenous in cells; host or cells: human platelets (platelet-rich plasma from healthy male donors)
T1 sequence (Q13258 1-359): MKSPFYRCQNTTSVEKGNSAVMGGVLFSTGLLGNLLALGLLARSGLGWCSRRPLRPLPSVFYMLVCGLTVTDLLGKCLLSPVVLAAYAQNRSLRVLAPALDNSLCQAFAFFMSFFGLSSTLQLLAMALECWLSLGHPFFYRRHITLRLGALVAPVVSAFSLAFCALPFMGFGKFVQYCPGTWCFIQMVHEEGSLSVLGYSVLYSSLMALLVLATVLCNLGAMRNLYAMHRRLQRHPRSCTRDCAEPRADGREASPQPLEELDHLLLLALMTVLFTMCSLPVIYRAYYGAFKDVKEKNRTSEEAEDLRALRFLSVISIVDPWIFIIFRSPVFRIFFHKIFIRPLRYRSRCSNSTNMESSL
Experimental: The prostaglandin D receptor selective antagonist used in the test was ((+/−)-3-benzyl-5-(6-carboxyhexyl)-1-(2-cyclohexyl-2-hydroxyethylamino)-hydantoin) (hereunder designated BW A868C) (Sigma-Aldrich Japan K.K.)
BW A868C was diluted with ethanol to final concentrations of 0.03 μmol/L, 0.1 μmol/L, 0.3 μmol/L, 1 μmol/L, 3 μmol/L and 10 μmol/L.
Compound No. 7 and PGD2 were diluted with ethanol to 287 nmol/L and 300 nmol/L, respectively, for subsequent use.
Blood was taken from the cubital veins of human healthy males and sampled into a tube containing 3.13% sodium citrate. The blood sample was centrifuged at 1,000 rpm for 10 minutes at 20° C. to separate the supernatant (PRP, or platelet-rich plasma) and the residue was further centrifuged at 3,000 rpm for 10 minutes at 20° C. to separate the supernatant (PPP, or platelet-poor plasma). The platelet count of PRP was appropriately diluted with PPP to 30×10^4 platelets/μL for subsequent use.
Platelet aggregation was measured with a platelet aggregation measuring instrument (PAM-8C; MC MEDICAL Co., LTD.) by the Born method (Nature, vol. 194, p. 927, 1962). A portion (273 μL) of PRP (for the BW A868C groups, 1 μL of BW A868C was added at varying concentrations) was preincubated at 37° C. for 3 minutes with stirring at 1,000 rpm. After the preincubation, 1 μL of ethanol or a test substance (compound No. 7: final concentration at 95.7 nmol/L; PGD2: final concentration at 1000 nmol/L) was added and the mixture was incubated at 37° C. for 3 minutes with stirring at 1000 rpm. After the incubation, 25 μL of ADP (final concentration at 3 μmol/L) was added to induce platelet aggregation and a maximum percent aggregation for 5 minutes was measured.

[3] = system: human platelets; test: Suppression of ADP-induced aggregation of human platelets; format: cell-based; conditions: human platelet-rich plasma, ADP (3 μM), Born method
Experimental: (A) Using the active ingredient of the present invention (compound No. 7) and PGD2 as a control for comparison, prostaglandin D receptor binding selectivity was determined with reference to the platelet aggregation suppressing action as the prostaglandin D receptor agonist action. 1. Human Platelet Aggregation Suppressing Action Suppression of ADP-Induced Aggregation of Human Platelets
The test was performed on purchased platelet-rich plasma (PRP) (6×10^8 platelets/mL) and platelet aggregation was measured based on the Born method (Nature, vol. 194, p. 927, 1962). To 100 μL of PRP, 5 μL of a 1 nM-3 μM test drug solution in ethanol was added and the mixture was incubated at 37° C. for 1 minute with stirring at 1000 rpm. To the resulting mixture, 5 μL of an aggregation inducer [ADP (3 μM)] was added to induce platelet aggregation and a maximum percent aggregation (a maximum change in light transmittance that occurred within 5 minutes after the induction of platelet aggregation) was determined by an aggregometer. The percent suppression of aggregation by each test drug was calculated from the maximum percent aggregation by the test drug as relative to the maximum percent aggregation by ethanol instead of the test drug solution and IC50 values were determined from the constructed dose-response curve.

[4] = system: BALB/c male mice; test: Mouse skin's barrier function, treatment test, TEWL (Test Example 5); format: in vivo; conditions: barrier destroyed with acetone/diethyl ether; 0.01% in ethanol, 100 μL, once a day for 2 days
Experimental: Six-week-old BALB/c male mice in groups of eight were shaven in a rostral dorsolateral area of 4 cm^2 (2 cm×2 cm) with electric clippers and the shaven area was covered for 60 seconds with an absorbent cotton (2 cm×2 cm) impregnated with a 1:1 liquid mixture of acetone and diethyl ether. This treatment for destroying the skin's barrier function was performed for 3 consecutive days on once-a-day basis. Starting on the day next to completion of the treatment for barrier destruction at day 3, a solvent (ethanol, 100 μL) or a drug dissolved in the solvent (compound No. 7, PGD2, PGF2α, or PGE1, all being at 0.01% in an amount of 100 μL) was applied to the barrier destroyed site for 2 days on once-a-day basis. On the day next to the second application of the solvent or drug, the transepidermal water loss (TEWL) at the same site was measured with Tewameter (TM210 of Courage & Khazawa, Germany) to evaluate the drug's action.

**Q.** What does the source list for `O=C(O)CSCCCC[C@@H]1[C@@H](C#C[C@@H](O)C2CCCCC2)[C@H](O)C[C@H]1Cl` [Compound No. 7]?
**A.** transepidermal water loss (TEWL) compared to the control group [1]: significant decrease in TEWL; platelet aggregation suppressing action compared with control group (ethanol) [2]: significant platelet aggregation suppressing action; IC50 [3]: 4.27 nM; transepidermal water loss (TEWL) compared to the solvent-applied control group [4]: significant decrease in TEWL
